According to US8313740B2 (priority 2006, dated 2012):

System: MC38-HER-2 cells
Details: mouse, in vivo

SMILES: CC(=O)O[C@@]12CO[C@@H]1C[C@H](O)[C@@]1(C)C(=O)[C@H](O)C3=C(C)[C@@H](OC(=O)[C@H](O)[C@@H](NC(=O)OC(C)(C)C)c4ccccc4)C[C@@](O)([C@@H](OC(=O)c4ccccc4)[C@H]21)C3(C)C [Docetaxel, docetaxel]
- tumor growth, subset A: modest and transient delay of tumor growth
- tumor growth, subset B: had no effect on tumor growth
- tumor growth, subset C: had no effect on tumor growth
